Measurements published in patent US4068074A, “Cephalosporin derivatives having at the 3-position of the cephem ring a heterocyclic thiomethyl group with a carboxy or sulfo group and at the 7-position of the cephem ring an α-heterocylic acylaminophenyl-acetamide group” (priority 1974, dated 1978).
Values after ≈ are worked out from the molar mass of the structure shown. Where two headings read alike, the source gives them in different places.

Legend:
[1] = test system: Micrococcus flavus ATCC 10240; assay: MIC against bacteria (Table I), strain (15); type: cell-based; conditions: ATCC10240
Text: (§1) Now, for illustrating the excellent pharmacological effects of the compounds of this invention, the values of MIC (γ/ml.) of the compounds against various bacteria are shown in Table 1, in which the compounds of this invention used are shown by example numbers.
(15) Micrococcus flavus ATCC 10240

Salmonella typhi H901 W = assay: MIC against bacteria (Table I), strain (9); type: cell-based; conditions: Salmonella enterica, TYPHI
Text: as §1
(9) Salmonella typhi H901 W

Proteus vulgaris OXK US = assay: MIC against bacteria (Table I), strain (1); type: cell-based; conditions: (1) Proteus vulgaris OXK US; read-out: MIC
Text: as §1
(1) Proteus vulgaris OXK US

Proteus vulgaris 0X 19US = assay: MIC against bacteria (Table I), strain (2); type: cell-based; conditions: 0X19US; (2) Proteus vulgaris 0X 19US; read-out: MIC
Text: as §1
(2) Proteus vulgaris 0X 19US

[2] = test system: Proteus mirabilis IXM OM-19; assay: MIC against bacteria (Table I), strain (3); type: cell-based; conditions: IXMOM19; (3) Proteus mirabilis IXM OM-19; read-out: MIC
Text: as §1
(3) Proteus mirabilis IXM OM-19

[3] = test system: Escherichia coli kauffmann 0-1; assay: MIC against bacteria (Table I), strain (7); type: cell-based; conditions: Escherichia coli
Text: as §1
(7) Escherichia coli kauffmann 0-1

Staphylococcus Onuma = assay: MIC against bacteria (Table I), strain (18); type: cell-based
Text: as §1
(18) Staphylococcus Onuma

Salmonella enteritidis = assay: MIC against bacteria (Table I), strain (10); type: cell-based; conditions: Salmonella enterica
Text: as §1
(10) Salmonella enteritidis

[4] = test system: Psuedomonas ovalis IMA 1002; assay: MIC against bacteria (Table I), strain (6); type: cell-based; conditions: (6) Psuedomonas ovalis IMA 1002; read-out: MIC
Text: as §1
(6) Psuedomonas ovalis IMA 1002

Shigella sonnei II 37148 = assay: MIC against bacteria (Table I), strain (12); type: cell-based; conditions: II37148; (12) Shigella sonnei II 37148; read-out: MIC
Text: as §1

[5] = test system: Klebsiella pneumoniae ATCC 10031; assay: MIC against bacteria (Table I), strain (8); type: cell-based; conditions: ATCC10031
Text: as §1
(8) Klebsiella pneumoniae ATCC 10031

[6] = test system: Pseudomonas aeruginosa ATCC 8689; assay: MIC against bacteria (Table I), strain (4); type: cell-based; conditions: ATCC8689; (4) Pseudomonas aeruginosa ATCC 8689; read-out: MIC
Text: as §1
(4) Pseudomonas aeruginosa ATCC 8689

[7] = Solubility of salts in water (Table 2); type: physicochemical; conditions: disodium salt, water, showing pH 7.4; read-out: Solubility: disodium salt dissolved in water in an amount of
Text: An advantage of the compounds of this invention is that the salts, for example, sodium salts of these compounds are readily soluble in water at pH of living bodies, which makes them suitable for injections at high concentration. The solubility of these compounds are illustrated in Table 2 together with a control example.

[8] = test system: Bacillus subtilis ATCC 6633; assay: MIC against bacteria (Table I), strain (14); type: cell-based; conditions: ATCC6633; (14) Bacillus subtilis ATCC 6633; read-out: MIC
Text: as §1
(14) Bacillus subtilis ATCC 6633

[9] = test system: Staphylococcus Shimanishi; assay: MIC against bacteria (Table I), strain (17); type: cell-based
Text: as §1
(17) Staphylococcus Shimanishi

[10] = test system: Pseudomonas aeruginosa 99 (Gentamycin resistant); assay: MIC against bacteria (Table I), strain (5); type: cell-based; conditions: (5) Pseudomonas aeruginosa 99 (Gentamycin resistant); read-out: MIC
Text: as §1
(5) Pseudomonas aeruginosa 99 (Gentamycin resistant)

[11] = test system: Shigella flexneri 2a 1675; assay: MIC against bacteria (Table I), strain (11); type: cell-based; conditions: 2A1675; (11) Shigella flexneri 2a 1675; read-out: MIC
Text: as §1

[12] = test system: Staphylococcus aureus 209P; assay: MIC against bacteria (Table I), strain (16); type: cell-based
Text: as §1
(16) Staphylococcus aureus 209P

[13] = test system: Bacillus megatherium 10778; assay: MIC against bacteria (Table I), strain (13); type: cell-based; conditions: (13) Bacillus megatherium 10778; read-out: MIC
Text: as §1

[14] = (15) Micrococcus flavus ATCC 10240, read-out: MIC
[15] = (18) Staphylococcus Onuma, read-out: MIC
[16] = (10) Salmonella enteritidis, read-out: MIC
[17] = (17) Staphylococcus Shimanishi, read-out: MIC
[18] = (16) Staphylococcus aureus 209P, read-out: MIC
[19] = (8) Klebsiella pneumoniae ATCC 10031, read-out: MIC

| Compound | MIC [1, 14] | MIC (Salmonella typhi H901 W) | MIC (Proteus vulgaris OXK US) | MIC (Proteus vulgaris 0X 19US) | MIC [2] | MIC [3] | MIC (Staphylococcus Onuma; [15]) | MIC (Salmonella enteritidis; [16]) | MIC [4] | MIC (Shigella sonnei II 37148) | MIC [6] | solubility [7] | MIC [8] | MIC [9, 17] | MIC [10] | MIC [11] | MIC [12, 18] | MIC [13] | MIC [5, 19] | other results |
| --- | --- | --- | --- | --- | --- | --- | --- | --- | --- | --- | --- | --- | --- | --- | --- | --- | --- | --- | --- | --- |
| O=C(O)CSc1nsc(SCC2=C(C(=O)O)N3C(=O)[C@@H](NC(=O)[C@H](NC(=O)c4cnccc4O)c4ccccc4)[C@H]3SC2)n1 [Example 13, 7-[D-α-(4-hydroxynicotinoylamido)-α-phenylacetamido]-3-(3-carboxymethylthio-1,2,4-thiadiazol-5yl)thiomethyl-Δ^3 cephem-4-carboxylic acid] | 6.25 µg/mL (≈ 9.26 µM) | 1.56 µg/mL (≈ 2.31 µM) | < 0.09 µg/mL | 0.78 µg/mL (≈ 1.16 µM) | 0.39 µg/mL (≈ 0.578 µM) | 3.13 µg/mL (≈ 4.64 µM) | 6.25 µg/mL (≈ 9.26 µM) | 0.39 µg/mL (≈ 0.578 µM) | 12.5 µg/mL (≈ 18.5 µM) | 3.13 µg/mL (≈ 4.64 µM) | 12.5 µg/mL (≈ 18.5 µM) | > 200 mg/mL | 0.39 µg/mL (≈ 0.578 µM) | 6.25 µg/mL (≈ 9.26 µM) | 6.25 µg/mL (≈ 9.26 µM) | 1.56 µg/mL (≈ 2.31 µM) | 0.78 µg/mL (≈ 1.16 µM) | 0.39 µg/mL (≈ 0.578 µM) |  | MIC ([5]; Klebsiella pneumoniae): 3.13 µg/mL (≈ 4.64 µM) |
| O=C(O)CSc1cc(SCC2=C(C(=O)O)N3C(=O)[C@@H](NC(=O)[C@H](NC(=O)c4cnccc4O)c4ccccc4)[C@H]3SC2)ncn1 [Example 16] |  | 1.56 µg/mL (≈ 2.33 µM) | < 0.09 µg/mL | < 0.09 µg/mL | 0.19 µg/mL (≈ 0.284 µM) | 6.25 µg/mL (≈ 9.35 µM) |  | 0.78 µg/mL (≈ 1.17 µM) | 25 µg/mL (≈ 37.4 µM) | 6.25 µg/mL (≈ 9.35 µM) | 25 µg/mL (≈ 37.4 µM) | > 200 mg/mL | 0.19 µg/mL (≈ 0.284 µM) |  | 25 µg/mL (≈ 37.4 µM) | 3.13 µg/mL (≈ 4.68 µM) | 0.78 µg/mL (≈ 1.17 µM) | 0.39 µg/mL (≈ 0.583 µM) | 12.5 µg/mL (≈ 18.7 µM) | MIC ([1]; Micrococcus flavus): 3.13 µg/mL (≈ 4.68 µM); MIC (Staphylococcus Onuma; Staphylococcus): 6.25 µg/mL (≈ 9.35 µM); MIC ([9]; Staphylococcus): 6.25 µg/mL (≈ 9.35 µM) |
| Cc1nc(SCC2=C(C(=O)O)N3C(=O)[C@@H](NC(=O)[C@H](NC(=O)c4cnccc4O)c4ccccc4)[C@H]3SC2)sc1CC(=O)O [Example 23, 7-[D-α-(4-hydroxynicotinoylamido)-α-phenylacetamido]-3-(5-carboxymethyl-4-methylthiazol-2-yl)thiomethyl-Δ^3-cephem-4-carboxylic acid] | 12.5 µg/mL (≈ 19.1 µM) | 1.56 µg/mL (≈ 2.38 µM) | < 0.09 µg/mL | < 0.09 µg/mL | 0.19 µg/mL (≈ 0.29 µM) | 1.56 µg/mL (≈ 2.38 µM) | 12.5 µg/mL (≈ 19.1 µM) |  | 12.5 µg/mL (≈ 19.1 µM) | 3.13 µg/mL (≈ 4.77 µM) | 12.5 µg/mL (≈ 19.1 µM) | > 200 mg/mL | 0.78 µg/mL (≈ 1.19 µM) | 12.5 µg/mL (≈ 19.1 µM) | 6.25 µg/mL (≈ 9.53 µM) | 1.56 µg/mL (≈ 2.38 µM) |  | 0.39 µg/mL (≈ 0.595 µM) | 6.25 µg/mL (≈ 9.53 µM) | MIC (Salmonella enteritidis; ENTERITIDIS): 0.39 µg/mL (≈ 0.595 µM); MIC ([12]; Staphylococcus aureus, 209P): 3.13 µg/mL (≈ 4.77 µM) |
| Cc1nc(SCC2=C(C(=O)O)N3C(=O)[C@@H](NC(=O)[C@H](NC(=O)c4cnccc4O)c4ccccc4)[C@H]3SC2)sc1SCC(=O)O [Example 24, 7-[D-α-(4-hydroxynicotinoylamido)-α-phenylacetamido]-3-(5-carboxymethylthio-4-methylthiazol-2-yl)thiomethyl-Δ^3-cephem-4-carboxylic acid] | 6.25 µg/mL (≈ 9.09 µM) | 1.56 µg/mL (≈ 2.27 µM) | < 0.09 µg/mL | < 0.09 µg/mL | 0.19 µg/mL (≈ 0.276 µM) | 3.13 µg/mL (≈ 4.55 µM) | 6.25 µg/mL (≈ 9.09 µM) | 0.78 µg/mL (≈ 1.13 µM) | 12.5 µg/mL (≈ 18.2 µM) | 3.13 µg/mL (≈ 4.55 µM) | 12.5 µg/mL (≈ 18.2 µM) | > 200 mg/mL | 0.39 µg/mL (≈ 0.567 µM) | 6.25 µg/mL (≈ 9.09 µM) | 6.25 µg/mL (≈ 9.09 µM) | 1.56 µg/mL (≈ 2.27 µM) | 0.78 µg/mL (≈ 1.13 µM) | 0.78 µg/mL (≈ 1.13 µM) | 6.25 µg/mL (≈ 9.09 µM) |  |
